From patent publication US12624004B2 (Fudan University, priority 2019, dated 2026)
Like-named read-outs stand apart in the source and are kept apart here.

Assays:
δ opioid receptor = molecular target: T1, δ opioid receptor (Homo sapiens, UniProt P41143); test: Competition binding assay on membranes of CHO cells expressing δ opioid receptor, [3H]-labeled ligand; conditions: for inhibition at 1 µM: 0.5 h
T1 construct: expressed in transfected cells; host or cells: CHO cells (membranes)
How it was run: (§1)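 CHO membranes (20–30 μg protein) incubated with [3H]-labeled ligand at 1–2 nM and test compounds, 30 min at 30° C; nonspecific binding with 1 μM corresponding ligand. Filtered on GF/C, washed with 50 mM Tris-HCl pH 7.4, scintillation-counted. IC50 converted to Ki by Ki=IC50/(1+[L]/Kd).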

κ opioid receptor = molecular target: T2, κ opioid receptor (Homo sapiens, UniProt P41145); test: Competition binding assay on membranes of CHO cells expressing κ opioid receptor, [3H]-labeled ligand; conditions: for inhibition at 1 µM: 0.5 h
T2 construct: expressed in transfected cells; host or cells: CHO cells (membranes)
How it was run: as §1

Female mice = test: In vivo hot plate method analgesia test; conditions: intraperitoneal
How it was run: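 Female mice (~20 g) on a 55° C hot plate, hindpaw response latency as pain threshold (pre-screen 5–30 s, 60 s cut-off). Latencies at 15, 30, 60 and 120 min after intraperitoneal dosing. %MPE = (post−pre latency)/(60−pre)×100, ED50 derived from %MPE.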

μ opioid receptor = molecular target: T3, μ opioid receptor (Homo sapiens, UniProt P35372); test: Competition binding assay on membranes of CHO cells expressing μ opioid receptor, [3H]-labeled ligand; conditions: for Ki: read-out: μOR Ki
T3 construct: expressed in transfected cells; host or cells: CHO cells (membranes)
How it was run: as §1

**Q.** What does the source list for CCCS(=O)(=O)N1CCC(O)(c2cccc(OC)c2)C(CN(C)C)C1.Cl (stereo not shown) [FWBH19, 3-((Dimethylamino)methyl)-4-(3-methoxyphenyl)-1-(propylsulfonyl)piperidin-4-ol hydrochloride]?
**A.** inhibition at 1 µM (δ opioid receptor; Table 2-1, 1 μM concentration of compound, read-out: δOR Binding rate (%)): 17.5 ± 4.38%; inhibition at 1 µM (κ opioid receptor; Table 2-1, 1 μM concentration of compound, read-out: κOR Binding rate (%)): 19.1 ± 10.3%; % MPE (5 mg/kg) (Female mice; Table 2-2, hot plate 55° C., 5 mg/kg dose): 17.04%; Ki (μ opioid receptor; Table 2-1): 133 ± 3.1 nM

**Q.** Which results are given for COc1cccc(C2(O)CCN(C(=O)Cc3cccc(F)c3)CC2CN(C)C)c1.Cl (stereo not shown) [FWBE12, 1-(3-((Dimethylamino)methyl)-4-hydroxy-4-(3-methoxyphenyl)piperidin-1-yl)-2-(3-fluorophenyl)ethyl-1-one hydrochloride]?
**A.** Ki (δ opioid receptor; Table 5-1, read-out: δOR Ki): 2390 ± 46 nM; Ki (κ opioid receptor; Table 5-1, read-out: κOR Ki): 2360 ± 95.5 nM; Maximum percentage effective analgesia (% MPE) (Female mice; Table 5-2, hot plate 55° C., 10 mg/kg dose): 88.38%; Ki (μ opioid receptor; Table 5-1): 82.3 ± 3.8 nM

**Q.** Which inhibition at 1 µM (δ opioid receptor; Table 3-1, 1 μM concentration of compounds, read-out: δOR Binding rate (%)) does the source give for COc1cccc(C2(O)CCN(C(=O)Nc3ccc(Cl)c(Cl)c3)CC2CN(C)C)c1.Cl (stereo not shown) [FWBF5, N-(3,4-dichlorophenyl)-3-((dimethylamino)methyl)-4-hydroxy-4-(3-methoxyphenyl)piperidine-1-carboxamide hydrochloride] here?
**A.** Its inhibition at 1 µM is 0%.

**Q.** What about the inhibition at 1 µM (κ opioid receptor; Table 3-1, 1 μM concentration of compounds, read-out: κOR Binding rate (%)) of the same compound?
**A.** Its inhibition at 1 µM is 18.2 ± 1.9%.

**Q.** And the “% MPE @ 10 mg/kg” value (Female mice; Table 3-2, hot plate 55° C., 10 mg/kg dose)?
**A.** The value was 25.42%.

**Q.** And the inhibition at 1 µM (μ opioid receptor; Table 3-1, 1 μM concentration of compounds, read-out: μOR Binding rate (%))?
**A.** Its inhibition at 1 µM is 46 ± 5.4%.

**Q.** Which results are given for COc1cccc(C2(O)CCN(C(=O)Cc3cc(F)c(F)cc3F)CC2CN(C)C)c1.Cl (stereo not shown) [FWBE18, 1-(3-((Dimethylamino)methyl)-4-hydroxy-4-(3-methoxyphenyl)piperidin-1-yl)-2-(2,4,5-trifluorophenyl)ethyl-1-one hydrochloride]?
**A.** inhibition at 1 µM (δ opioid receptor; Table 5-1, 1 μM concentration of compound, read-out: δOR Combination rate (%)): 0%; inhibition at 1 µM (κ opioid receptor; Table 5-1, 1 μM concentration of compound, read-out: κOR Combination rate (%)): 61.6 ± 0.7%; ED50 (Female mice; Mus musculus, ip, Table 5-2, hot plate): 1.11 mg/kg; inhibition at 1 µM (μ opioid receptor; 0.5 h, Table 5-1, 1 μM concentration of compound, read-out: μOR Combination rate (%)): 29.7 ± 1.9%
